Measurements reported in patent US9796706B2, “Inhibitors of Jun N-terminal kinase” (IMAGO PHARMACEUTICALS, INC., priority 2009, dated 2017).

What was measured:
Format in all cases: biochemical
Conditions in all cases: procedures of Example 14 (TR-FRET)
[1] = biological target: JNK3 (Homo sapiens (Human), UniProt P53779); assay: JNK3 TR-FRET kinase assay (Example 14)
Outline: (§1)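 Two TR-FRET formats were used for each JNK isoform. In the direct one, preactivated aJNK phosphorylated EPIW-1 at about 1 mM final ATP (RT, 15 min). Both were EDTA-quenched and read by HTRF.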

[2] = biological target: JNK1 (Homo sapiens (Human), UniProt P45983); assay: JNK1 TR-FRET kinase assay (Example 14)
Outline: as §1

[3] = biological target: JNK2 (Homo sapiens (Human), UniProt P45984); assay: JNK2 TR-FRET kinase assay (Example 14)
Outline: as §1

Chain of JNK1 (P45983 other isoform, or with tags, fused parts or gaps isoform P45983-2, species assumed): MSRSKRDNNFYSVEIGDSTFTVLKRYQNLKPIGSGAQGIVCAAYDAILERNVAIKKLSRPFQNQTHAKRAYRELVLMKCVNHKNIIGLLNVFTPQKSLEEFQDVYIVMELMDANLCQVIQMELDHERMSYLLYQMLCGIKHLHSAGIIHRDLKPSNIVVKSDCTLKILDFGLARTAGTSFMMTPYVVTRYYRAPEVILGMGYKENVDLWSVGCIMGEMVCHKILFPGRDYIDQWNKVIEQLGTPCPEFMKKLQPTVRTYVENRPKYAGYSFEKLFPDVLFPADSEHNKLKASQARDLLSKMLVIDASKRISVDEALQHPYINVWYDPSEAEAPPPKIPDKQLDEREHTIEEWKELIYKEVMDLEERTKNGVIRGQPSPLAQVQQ
Chain of JNK2 (P45984 whole entry, species assumed): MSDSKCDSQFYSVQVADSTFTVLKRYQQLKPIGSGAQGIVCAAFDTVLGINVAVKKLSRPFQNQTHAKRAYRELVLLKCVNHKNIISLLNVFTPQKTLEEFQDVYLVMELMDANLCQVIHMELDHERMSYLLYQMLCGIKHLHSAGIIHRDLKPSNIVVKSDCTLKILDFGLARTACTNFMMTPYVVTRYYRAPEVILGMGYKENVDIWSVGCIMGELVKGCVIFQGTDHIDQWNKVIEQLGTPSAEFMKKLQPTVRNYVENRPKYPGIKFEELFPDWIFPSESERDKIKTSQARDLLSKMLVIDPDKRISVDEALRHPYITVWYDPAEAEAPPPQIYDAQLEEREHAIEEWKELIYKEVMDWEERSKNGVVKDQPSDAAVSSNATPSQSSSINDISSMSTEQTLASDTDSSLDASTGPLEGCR
Chain of JNK3 (P53779 whole entry, species assumed, canonical isoform): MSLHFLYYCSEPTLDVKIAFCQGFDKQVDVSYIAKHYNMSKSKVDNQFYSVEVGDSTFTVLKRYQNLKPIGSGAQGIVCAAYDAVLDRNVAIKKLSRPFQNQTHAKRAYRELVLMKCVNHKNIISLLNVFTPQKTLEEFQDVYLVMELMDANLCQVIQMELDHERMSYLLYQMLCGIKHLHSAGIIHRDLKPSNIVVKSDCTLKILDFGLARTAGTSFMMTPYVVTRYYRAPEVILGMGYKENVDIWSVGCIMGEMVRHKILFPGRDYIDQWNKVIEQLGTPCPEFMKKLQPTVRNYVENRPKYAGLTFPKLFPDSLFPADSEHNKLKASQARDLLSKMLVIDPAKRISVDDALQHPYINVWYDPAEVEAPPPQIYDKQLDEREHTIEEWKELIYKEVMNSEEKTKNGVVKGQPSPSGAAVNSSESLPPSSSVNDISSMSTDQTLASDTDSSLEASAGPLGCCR

Row | Structure (SMILES) | IC50 [1] [nM] | IC50 [2] [nM] | IC50 [3] [nM]
1 | N#Cc1csc(NC(=O)CN2C(=O)CCc3ncccc32)c1-c1nc2ccccc2s1 [N-(3-(benzo[d]thiazol-2-yl)-4-cyanothiophen-2-yl)-2-(2-oxo-3,4-dihydro-1,5-naphthyridin-1(2H)-yl)acetamide] | 100 to 10000 | 100 to 10000 | 100 to 10000
2 | O=C(Cc1ccc(F)c2ncccc12)Nc1scc(Br)c1-c1ncn[nH]1 [N-(4-bromo-3-(1H-1,2,4-triazol-5-yl)thiophen-2-yl)-2-(8-fluoroquinolin-5-yl)acetamide] | < 100 | < 100 | 100 to 10000
3 | O=C(Cn1c(=O)ccc2cc(F)c(F)cc21)Nc1scc(Br)c1-c1ncn[nH]1 [N-(4-bromo-3-(1H-1,2,4-triazol-5-yl)thiophen-2-yl)-2-(6,7-difluoro-2-oxoquinolin-1(2H)-yl)acetamide] | < 100 | < 100 | < 100
4 | O=C(Cn1c(=O)ccc2cnccc21)Nc1scc(Br)c1-c1ncn[nH]1 [N-(4-bromo-3-(1H-1,2,4-triazol-5-yl)thiophen-2-yl)-2-(2-oxo-1,6-naphthyridin-1(2H)-yl)acetamide] | < 100 | < 100 | < 100
5 | O=C(Cc1cc(F)cc2ncccc12)Nc1scc(Br)c1-c1ncn[nH]1 [N-(4-bromo-3-(1H-1,2,4-triazol-5-yl)thiophen-2-yl)-2-(7-fluoroquinolin-5-yl)acetamide] | < 100 | < 100 | 100 to 10000
6 | O=C(Cc1ccnc2ccccc12)Nc1scc(Br)c1-c1nnc[nH]1 [N-(4-bromo-3-(4H-1,2,4-triazol-3-yl)thiophen-2-yl)-2-(quinolin-4-yl)acetamide] | < 100 | < 100 | 100 to 10000
7 | O=C(Cc1cc(C(F)(F)F)c2cccnc2c1)Nc1scc(Br)c1-c1nnc[nH]1 [N-(4-bromo-3-(4H-1,2,4-triazol-3-yl)thiophen-2-yl)-2-(5-(trifluoromethyl)quinolin-7-yl)acetamide] | 100 to 10000 | 100 to 10000 | 100 to 10000
8 | CN1CCN(CCCn2cnc(-c3c(Cl)csc3NC(=O)Cn3c(=O)ccc4cc(C(F)(F)F)ccc43)n2)CC1 [N-(4-chloro-3-(1-(3-(4-methylpiperazin-1-yl)propyl)-1H-1,2,4-triazol-3-yl)thiophen-2-yl)-2-(2-oxo-6-(trifluoromethyl)quinolin-1(2H)-yl)acetamide] | < 100 | < 100 | 100 to 10000
9 | O=C(Cn1c(=O)ccc2c(F)cccc21)Nc1scc(Br)c1-c1ncn[nH]1 [N-(4-bromo-3-(1H-1,2,4-triazol-5-yl)thiophen-2-yl)-2-(5-fluoro-2-oxoquinolin-1(2H)-yl)acetamide] | < 100 | < 100 | < 100
10 | N#Cc1csc(NC(=O)Cn2c(=O)ccc3cc(C(F)(F)F)ccc32)c1-n1nnc2ccccc21 [N-(3-(1H-benzo[d][1,2,3]triazol-1-yl)-4-cyanothiophen-2-yl)-2-(2-oxo-6-(trifluoromethyl)quinolin-1(2H)-yl)acetamide] | 100 to 10000 | 100 to 10000 | 100 to 10000
11 | O=C(CN1C(=O)CCc2ccccc21)Nc1scc(Br)c1-c1ncn[nH]1 [N-(4-bromo-3-(1H-1,2,4-triazol-5-yl)thiophen-2-yl)-2-(2-oxo-3,4-dihydroquinolin-1(2H)-yl)acetamide] | < 100 | < 100 | < 100
12 | Cn1cnc(-c2c(C#N)csc2NC(=O)CN2C(=O)CCc3ncccc32)n1 [N-(4-cyano-3-(1-methyl-1H-1,2,4-triazol-3-yl)thiophen-2-yl)-2-(2-oxo-3,4-dihydro-1,5-naphthyridin-1(2H)-yl)acetamide] | < 100 | < 100 | < 100
13 | N#Cc1csc(NC(=O)CN2C(=O)CCc3ccccc32)c1-c1ncn[nH]1 [N-(4-cyano-3-(1H-1,2,4-triazol-5-yl)thiophen-2-yl)-2-(2-oxo-3,4-dihydroquinolin-1(2H)-yl)acetamide] | < 100 | < 100 | < 100
14 | O=C(CN1C(=O)CCc2cnccc21)Nc1scc(Br)c1-c1ncn[nH]1 [N-(4-bromo-3-(1H-1,2,4-triazol-5-yl)thiophen-2-yl)-2-(2-oxo-3,4-dihydro-1,6-naphthyridin-1(2H)-yl)acetamide] | < 100 | < 100 | < 100
15 | O=C(Cn1c(=O)ccc2ccc(F)cc21)Nc1scc(Br)c1-c1ncn[nH]1 [N-(4-bromo-3-(1H-1,2,4-triazol-5-yl)thiophen-2-yl)-2-(7-fluoro-2-oxoquinolin-1(2H)-yl)acetamide] | < 100 | < 100 | < 100
16 | O=C(Cn1c(=O)ccc2cnc(C(F)(F)F)cc21)Nc1scc(Cl)c1-c1nc[nH]n1 [N-(4-chloro-3-(1H-1,2,4-triazol-3-yl)thiophen-2-yl)-2-(2-oxo-7-(trifluoromethyl)-1,6-naphthyridin-1(2H)-yl)acetamide] | < 100 | < 100 | < 100
17 | Cc1n[nH]c(-c2c(C)csc2NC(=O)Cc2cccc3nccnc23)n1 [N-(4-methyl-3-(3-methyl-1H-1,2,4-triazol-5-yl)thiophen-2-yl)-2-(quinoxalin-5-yl)acetamide] | 100 to 10000 | 100 to 10000 | 100 to 10000
18 | O=C(Cn1c(=O)ccc2cc(OC(F)(F)F)ccc21)Nc1scc(Br)c1-c1ncn[nH]1 [N-(4-bromo-3-(1H-1,2,4-triazol-5-yl)thiophen-2-yl)-2-(2-oxo-6-(trifluoromethoxy)quinolin-1(2H)-yl)acetamide] | < 100 | < 100 | < 100
19 | Cn1cnc(-c2c(Cl)csc2NC(=O)Cn2c(=O)ccc3nc(C(F)(F)F)ccc32)n1 [N-(4-chloro-3-(1-methyl-1H-1,2,4-triazol-3-yl)thiophen-2-yl)-2-(2-oxo-6-(trifluoromethyl)-1,5-naphthyridin-1(2H)-yl)acetamide] | < 100 | < 100 | < 100
20 | O=C(Cn1c(=O)ccc2cc(C(F)(F)F)ccc21)Nc1sc(Cl)cc1-c1ncn[nH]1 [N-(5-chloro-3-(1H-1,2,4-triazol-5-yl)thiophen-2-yl)-2-(2-oxo-6-(trifluoromethyl)quinolin-1(2H)-yl)acetamide] | 100 to 10000 | < 100 | 100 to 10000
21 | O=C(Cn1c(=O)ccc2cc(C(F)(F)F)c(F)cc21)Nc1scc(Br)c1-c1ncn[nH]1 [N-(4-bromo-3-(1H-1,2,4-triazol-5-yl)thiophen-2-yl)-2-(7-fluoro-2-oxo-6-(trifluoromethyl)quinolin-1(2H)-yl)acetamide] | < 100 | < 100 | < 100

Results, then the compound that gave them:

Row | IC50 [1] [nM] | IC50 [2] [nM] | IC50 [3] [nM] | Structure (SMILES)
22 | 100 to 10000 | 100 to 10000 | > 10000 | COc1ccc(CC(=O)Nc2ccsc2-c2nc(C(C)(C)C)n[nH]2)cc1 [N-(2-(3-tert-butyl-1H-1,2,4-triazol-5-yl)thiophen-3-yl)-2-(4-methoxyphenyl)acetamide]
23 | 100 to 10000 | 100 to 10000 | 100 to 10000 | COc1ccc(CC(=O)Nc2ccsc2-c2cnccn2)cc1 [2-(4-methoxyphenyl)-N-(2-(pyrazin-2-yl)thiophen-3-yl)acetamide]
24 | 100 to 10000 | 100 to 10000 | 100 to 10000 | COc1ccc(CC(=O)Nc2ccsc2-c2ncn[nH]2)cc1 [N-(2-(1H-1,2,4-triazol-5-yl)thiophen-3-yl)-2-(4-methoxyphenyl)acetamide]
25 | > 10000 | > 10000 | > 50000 | COc1ccc(CC(=O)Nc2ccsc2-c2cn(C)cn2)cc1 [2-(4-methoxyphenyl)-N-(2-(1-methyl-1H-imidazol-4-yl)thiophen-3-yl)acetamide]
26 | 100 to 10000 | 100 to 10000 | > 10000 | Cc1csc(NC(=O)Cc2cccc3cnccc23)c1-c1nc2ccccc2s1 [N-(3-(benzo[d]thiazol-2-yl)-4-methylthiophen-2-yl)-2-(isoquinolin-5-yl)acetamide]
27 | > 10000 | > 10000 | > 50000 | COc1ccc(CC(=O)Nc2ccsc2-c2nnc(C(C)C)o2)cc1 [N-(2-(5-isopropyl-1,3,4-oxadiazol-2-yl)thiophen-3-yl)-2-(4-methoxyphenyl)acetamide]
28 | < 100 | < 100 | < 100 | O=C(Cc1cccc2cnccc12)Nc1scc(Br)c1-c1ncn[nH]1 [N-(4-bromo-3-(1H-1,2,4-triazol-5-yl)thiophen-2-yl)-2-(isoquinolin-5-yl)acetamide]
29 | > 10000 | > 10000 | > 50000 | Cc1nc(-c2sccc2NC(=O)Cc2cccc3ccccc23)n(C)n1 [N-(2-(1,3-dimethyl-1H-1,2,4-triazol-5-yl)thiophen-3-yl)-2-(naphthalen-1-yl)acetamide]
30 | > 10000 | > 10000 | > 50000 | Cn1ccnc1-c1sccc1NC(=O)Cc1cccc2ccccc12 [N-(2-(1-methyl-1H-imidazol-2-yl)thiophen-3-yl)-2-(naphthalen-1-yl)acetamide]
31 | 100 to 10000 | 100 to 10000 | 100 to 10000 | O=C(Cc1cccc2ccccc12)Nc1ccsc1-c1ncn[nH]1 [N-(2-(1H-1,2,4-triazol-5-yl)thiophen-3-yl)-2-(naphthalen-1-yl)acetamide]
32 | 100 to 10000 | 100 to 10000 | 100 to 10000 | O=C(Cc1ccc(OCCCN2CCCCC2)cc1)Nc1ccsc1-c1cscn1 [2-(4-(3-(piperidin-1-yl)propoxy)phenyl)-N-(2-(thiazol-4-yl)thiophen-3-yl)acetamide]
33 | 100 to 10000 | 100 to 10000 | 100 to 10000 | O=C(Cc1cccc2cc(C(F)(F)F)cnc12)Nc1scc(Br)c1-c1nc[nH]n1 [N-(4-bromo-3-(1H-1,2,4-triazol-3-yl)thiophen-2-yl)-2-(3-(trifluoromethyl)quinolin-8-yl)acetamide]
34 | 100 to 10000 | 100 to 10000 | 100 to 10000 | CCc1n[nH]c(-c2sccc2NC(=O)Cc2ccc(OC)cc2)n1 [N-(2-(3-ethyl-1H-1,2,4-triazol-5-yl)thiophen-3-yl)-2-(4-methoxyphenyl)acetamide]
